Measurements from patent US7877241B2, “System and method for identifying behavioral signatures” (University of Maryland, Baltimore, priority 2005, dated 2011).
Where two headings read alike, the source gives them in different places.

What was measured:
C57BL/6J mice = settings: cited from earlier work
[1] = system: behavioral effects of cocaine; settings: in vivo; cited from earlier work
DBA/2J mice = settings: cited from earlier work
C57BL/6J males = assay: SEE open-field test with pattern screening of mice injected with anxiolytic and anxiogenic drugs; type: in vivo, mouse; settings: vs vehicle, diazepam 1 or 2 mg/kg, FG-7142 10 mg/kg, PTZ 20 mg/kg, i.p., training set only
Procedure: Behavioral data for the exemplary embodiments was gathered using the SEE open-field test described above. A mouse was introduced to a 2.5 meter circular pen and allowed to freely explore the pen for 30 minutes while the mouse's location was video-tracked and digitized at a rate of 25-30 Hz with a spatial resolution of approximately 1 cm. The tracked coordinates are stored on a storage device and imported into the SEE software. Using SEE software procedures the path is further smoothed and segmented into stops and progression segments. The data file of each animal thus included 45,000-54,000 data pints of its coordinates in the arena. Because small, local movements during stopping cannot be properly captured using available tracking technology, the analysis was limited to progression segments. Depending on the activity of the test subject, progression segments generally contain […] (100-1000 s) per animal. […]
FIG. 3 is a flow chart for a method of isolating candidate behavioral patterns according to an embodiment of the present invention. In step 302, the data points are quantified for a feature vector. In the embodiment of the present invention being described, each data point observed during the animal progression is quantified using seven “features” (variables) (t, d, v, a, j, h, c). […]
In step 306, the difference in relative frequencies are analyzed. […]

[2] = database having only C57BL/6J mice

CNC(=O)c1cc2c(cn1)[nH]c1ccccc12 [FG 7142, b-Carboline-3-carboxylic acid N-methylamide]
path curvature (C57BL/6J mice; [2]): increased

CCCCN1[C@@H]2CC[C@H]1CC(OC(c1ccc(F)cc1)c1ccc(F)cc1)C2 (some centres unmarked) [JHW007]
antagonizing the behavioral effects of cocaine [1]: effective in antagonizing the behavioral effects of cocaine

O=C(NCCCCN1CCN(c2cccc(Cl)c2Cl)CC1)c1ccc2c(c1)Cc1ccccc1-2 [NGB2904]
antagonizing the behavioral effects of cocaine [1]: effective in antagonizing the behavioral effects of cocaine

CC(N)Cc1ccccc1 (centres unmarked) [amphetamine]
increase in distance traveled (C57BL/6J mice; C57BL/6J strain (both strains)): 3 fold
path curvature (C57BL/6J mice; C57BL/6 mice, genotype comparison DBA/2J vs. C57BL/6J): decreased
path curvature (DBA/2J mice; BDA/2J mice (so in the source), genotype comparison DBA/2J vs. C57BL/6J): no effect
increase in distance traveled (DBA/2J mice; DBA/2J strain (both strains)): 3 fold

CN1C(=O)CN=C(c2ccccc2)c2cc(Cl)ccc21 [diazepam]
path curvature (C57BL/6J mice; [2]): dose-dependently decreased
relative frequency of performing first pattern (3,*,*,4,1,*,3) (C57BL/6J males; FIG. 6A): significantly reduced
relative frequency of performing second pattern (3,1,4,*,3,5,*) (C57BL/6J males; FIG. 6B): dose-dependent effect

C1CCc2nnnn2CC1 [pentylenetetrazole]
path curvature (C57BL/6J mice; [2]): increased
